Measured values taken from PMC7985297 (Communications Biology, 2021).
Where “and” joins values, the source holds several entries; their conditions need not be identical. Equal entries are not always repeated. Entries after “also recorded” stand apart in the source; their conditions may differ.

Tests used:
[1] = target: T1, recombinant human Pin1 protein (Homo sapiens, UniProt Q13526); test: Pin1 inhibition assay (fluorometric isomerase activity); type: biochemical; settings: compounds 0–50 µM, 500 ng Pin1, Supplementary Fig. 2
T1 construct: purchased Abcam ab51230
T1 sequence (Q13526 whole entry): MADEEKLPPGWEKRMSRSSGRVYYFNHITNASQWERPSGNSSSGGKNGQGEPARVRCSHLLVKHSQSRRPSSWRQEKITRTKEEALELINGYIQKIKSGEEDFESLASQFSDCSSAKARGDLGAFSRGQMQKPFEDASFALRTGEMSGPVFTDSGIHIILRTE
Method: The effect of inhibitors on Pin1 isomerase activity was evaluated using a fluorometric Pin1 Assay Kit (AnaSpec, Fremont, California), according to the manufacturer’s protocol. […] Fluorescence intensity was measured with excitation wavelength at 490 nm and emission wavelength at 520 nm on an Infinite M1000 plate reader (Tecan, Männedorf, Switzerland) at 37 °C. Measurements were recorded every 5 min for up to 1 h.
Fluorescent polarization-based assay
the isomerase activity of Pin1. Each reaction contains 500 ng of
recombinant human Pin1 protein incubated with an inhibitor and a
fluorogenic substrate at 37°C. The uncatalyzed reaction represents
the intrinsic cis/trans isomerization of the substrate without Pin1
separate experiments with the correlation performed in duplicate
wells. RFU, relative fluorescent units.
(1 picture or pasted object on this page, not shown here)

[2] = system: Pin1 and cell cycle proteins in LN95 cells; test: Western blot of Pin1 and cell cycle proteins in LN95 cells; settings: for CyclinA2 protein level (Fig. 6a) / CyclinB1 protein level (Fig. 6a) / CyclinD1 protein level (Fig. 6a) / Pin1 protein level (Fig. 6a) / p21 protein level (Fig. 6a) / p27 protein level (Fig. 6a): relative to 0 μM = 1, replicate experiments by date
Method: Data shown are the means ± s.e.m. from 3–4 independent experiments. Statistical significance was determined by ANOVA using the Dunnett’s multiple comparisons test. *P < 0.05, **P < 0.01, ***P < 0.001.
For western blot analyses, membranes were blocked with 5% non-fat milk in phosphate-buffered saline containing 0.1% Tween-20 (PBS-T) and then incubated overnight at 4 °C with primary antibody (1:200–5000) in PBS-T containing 5% non-fat milk or 2% BSA. After incubation with the primary antibody, the membrane was washed three times with TBS-T, incubated with a horseradish peroxidase-conjugated antibody secondary antibody (1:5000–10,000) for 1–2 h at room temperature, and washed three times with PBS-T and two more times with PBS before chemiluminescence was detected with ECL Prime Reagent (GE Healthcare Life Science, Mississauga, ON). Western blot images were captured using the ChemiDoc MP Imaging System (Bio-Rad Laboratories, Hercules, CA) and quantified using ImageJ software.

[3] = system: Pin1, Cyclin D1, Skp2 and AR in LN95-D3 tumors; test: Western blot of harvested LN95-D3 xenograft tumors (Pin1, Cyclin D1, Skp2, AR); type: in vivo, mice; settings: ATRA pellets compared to placebo
Method: Scale bars represent 5 mm (f) western blot analysis showing the expression of Pin1, Cyclin D1, Skp2, and AR from representative tumors. Quantification of the data is shown for g Pin1 and h Skp2, where the error bars represent the mean ± s.e.m.
All experiments involving animals conform to the relevant regulatory and ethical standards and were approved by the University of British Columbia Animal Care Committee (A18-0077). Metacam (1 mg/kg, 0.05 mL/10 g of body weight) was administered subcutaneously prior to any surgery. Animals were anesthetized with isoflurane and euthanized by CO2. Six–eight-week-old male (NOD-scid IL2Rgamma^null) mice were maintained in the Animal Care Facility at the British Columbia Cancer Research Centre. Mice were castrated 2 weeks before they were subcutaneously inoculated in the right flank with two million LN95-D3 cells in a 1:1 volume of matrigel (Corning Discovery Labware, Corning, NY). […] Tumors were excised 1 day after the last dose and prepared for western blot analysis and immunohistochemistry.

[4] = system: LN95-D3 cells; test: Cell cycle analysis by flow cytometry, LN95-D3 subline; type: cell-based, human; settings: LN95-D3, absence of androgen, 48 h
[5] = system: LN95 cells; test: Senescence-associated β-galactosidase staining, LN95; settings: 3 days
Method: β-galactosidase activity at suboptimal pH (6.0) was used as a marker to detect cellular senescence[42]. Cells were seeded in four-well chamber slides at a density of 8000-10,000 cells. […] Three days later, the media was removed and cells were fixed with 2% formaldehyde/0.2% glutaraldehyde for 10 min at room temperature, washed with PBS, and then incubated with freshly prepared β-Gal staining solution (Cell Signaling) titrated to pH 6.0. Staining was optimal after incubating with the β-Gal solution at 37 °C for 16–18 h. After staining, the slides were washed twice with PBS, once with absolute methanol, and then mounted with 50% glycerol/PBS. The percentage of β-galactosidase-positive cells were counted with ImageJ using the Cell Counter plugin. A total of nine images containing 100–300 cells were scored to determine the percentages of positive cells.

[6] = system: PC-3 cells; test: BrdU incorporation assay, PC-3; type: cell-based, human; settings: ATRA 10 µM; for BrdU incorporation, PC-3 (Fig. 4c): − R1881, ENZ 10 µM, EPI-002 25 µM, JUG 20 µM
Method: Cells were treated with the inhibitors and stimulated with 1 nM of R1881 (+) or vehicle (−) for 24 to 72 h. Each data point represents the average from an independent experiment where the error bars show the mean ± s.e.m.
BrdU incorporation was determined with the colorimetric BrdU ELISA kit (Roche Diagnostics), according to the manufacturer’s protocol. In brief, cells were seeded in 96-well plates (LNCaP, 5000/well; LN95, 8000/well; PC-3 and DU145, 4000/wells) in media with reduced serum (0.5–1%). On the following day, cells were pre-treated with test compounds for 1 h and then incubated with 0.1 nM of R1881. After the indicated incubation times, cells were labeled with 10 μM of BrdU for 2 h and then fixed for the assay.

[7] = system: LN95 cells; test: Cell cycle analysis by flow cytometry, LN95; settings: LN95, ATRA 5 and 10 μM, EPI-002 25 μM, 24 or 48 h
Method: After treatments, the cells were labeled with BrdU (10 μM) for 2 h and then trypsinized, washed, and fixed in 70% EtOH/PBS at −20 °C. Approximately 2.5–5.0 × 10^5 of fixed cells were labeled with fluorescein (FITC)-conjugated anti-BrdU antibody (B44; BD Biosciences) and the DNA content was stained with 7-AAD (Sigma). The data were collected with a BD FACSCalibur flow cytometer (BD Biosciences). FITC and 7-AAD fluorescence were detected in the FL1 and FL3 channels, respectively, using CellQuest Pro and analyzed by FlowJo V10 software (Ashland, Oregon). Pre-gating was performed on all samples by plotting FL3-W × FL3-H to exclude doublets from the analysis.

[8] = system: LN95 cells; test: Colony formation of LN95 cells; type: cell-based, human; settings: LN95, ATRA 5 or 10 µM, EPI-002 25 µM, treated 24 hours then re-plated
Method: page 5: Supplementary Figure 5 a b […] (a) Representative images of colonies from LN95 cells after […] EPI-002. After treating with compounds for 24 hours, the media was removed, and 500 -1,000 cells were re-plated in 6-well plates. Colonies were fixed with 4% paraformaldehyde, stained with a 0.1% crystal violet solution, and then imaged. […]

[9] = target: T2, AR interaction with STAT3 (Homo sapiens, UniProt P10275, T878A); test: Co-immunoprecipitation of AR with STAT3 from LNCaP cells; type: cell-based; settings: juglone 30 μM, IL-6 50 ng/mL, 6 h
T2 construct: Endogenous STAT3 complexes were co-immunoprecipitated from LNCaP cells treated with juglone and IL-6; endogenous in cells; host or cells: LNCaP
T2 sequence (P10275 whole entry T878A): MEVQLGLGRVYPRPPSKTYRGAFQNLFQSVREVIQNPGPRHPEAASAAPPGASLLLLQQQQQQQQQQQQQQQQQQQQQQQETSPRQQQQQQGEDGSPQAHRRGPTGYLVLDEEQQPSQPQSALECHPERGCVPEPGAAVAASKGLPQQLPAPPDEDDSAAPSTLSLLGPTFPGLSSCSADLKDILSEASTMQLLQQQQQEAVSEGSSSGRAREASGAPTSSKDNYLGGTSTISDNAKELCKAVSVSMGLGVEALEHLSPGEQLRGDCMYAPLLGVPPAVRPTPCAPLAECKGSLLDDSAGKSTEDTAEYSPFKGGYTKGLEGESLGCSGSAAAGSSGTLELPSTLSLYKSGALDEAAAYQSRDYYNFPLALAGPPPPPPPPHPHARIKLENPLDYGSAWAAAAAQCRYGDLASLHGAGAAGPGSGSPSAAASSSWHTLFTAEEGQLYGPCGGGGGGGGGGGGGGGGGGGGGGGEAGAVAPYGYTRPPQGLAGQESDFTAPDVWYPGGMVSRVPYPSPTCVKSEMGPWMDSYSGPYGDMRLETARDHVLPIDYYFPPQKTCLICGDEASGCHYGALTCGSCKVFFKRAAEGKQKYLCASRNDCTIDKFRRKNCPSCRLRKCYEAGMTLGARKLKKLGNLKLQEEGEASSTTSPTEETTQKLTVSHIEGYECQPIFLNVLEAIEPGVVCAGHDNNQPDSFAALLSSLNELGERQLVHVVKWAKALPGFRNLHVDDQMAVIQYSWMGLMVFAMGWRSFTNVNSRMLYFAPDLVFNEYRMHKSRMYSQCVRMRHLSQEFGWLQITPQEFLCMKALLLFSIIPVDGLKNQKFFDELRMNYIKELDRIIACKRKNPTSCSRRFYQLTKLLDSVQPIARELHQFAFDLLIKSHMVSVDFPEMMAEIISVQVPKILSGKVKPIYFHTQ
Method: (§1) Fig. 3 Pin1 interacts with the AR NTD and regulates transactivation. a, b Transactivation assays performed in LNCaP cells expressing a vector encoding the human AR NTD fused to a Gal4 DNA-binding domain (Gal4-ARN). […] Input samples show Pin1 expression from lysates before the pull-down. i Co-immunoprecipitation assay showing AR protein co-immunoprecipitated with STAT3 from LNCaP cells incubated with EPI-002 (EPI, 35 μM), juglone (JUG, 30 μM), or vehicle (VEH, DMSO), and IL-6 (50 ng/mL) for 6 h. j, k Levels of phosphorylated MAPK (isoforms p44 and p42) and phosphorylated STAT3 (Tyr705 and Ser727) from LNCaP cells pre-treated with juglone (20 µM) and then stimulated with IL-6 (50 ng/mL) for 15 min. Error bars show the mean ± s.e.m. *P < 0.05, **P < 0.01, ***P < 0.001; ns not significant.

[10] = system: Gal4-ARN fragments and Gal4-AR234–391 constructs; test: Transactivation assay with Gal4-ARN fragments and Gal4-AR234–391 proline to glycine mutants; type: cell-based, human; settings: juglone 20 µM, IL-6 50 ng/mL, 24 h
Method: as §1

Q: How did the “effect on isomerase activity of Pin1” value [1] turn out when CC1=C(/C=C/C(C)=C/C=C/C(C)=C/C(=O)O)C(C)(C)CCC1 [ATRA, all-trans retinoic acid] was run?
A: The value was “inhibited the isomerase activity of Pin1 in a dose-dependent manner”.

Q: And the “CyclinA2 protein level (Fig. 6a)” value ([2]; 1 μM)?
A: The value was 1 and 0.69 and 0.64.

Q: What about the “CyclinB1 protein level (Fig. 6a)” value ([2]; 1 μM) of the same compound?
A: Its value is 1.17 and 0.87 and 1.22.

Q: And the “CyclinD1 protein level (Fig. 6a)” value ([2]; 1 μM)?
A: Its value is 0.71 and 0.24 and 0.7 and 0.33.

Q: What about the “Pin1 protein level (Fig. 6a)” value ([2]; 1 μM) of the same compound?
A: The value was 0.8 and 0.7 and 0.86 and 0.56.

Q: What about the “p21 protein level (Fig. 6a)” value ([2]; 1 μM) of the same compound?
A: The value was 1.19 and 0.73 and 1.3.

Q: And the “p27 protein level (Fig. 6a)” value ([2]; 1 μM)?
A: Its value is 0.93 and 0.87 and 1.2.

Q: And the “CyclinA2 protein level (Fig. 6a)” value ([2]; 5 μM)?
A: Its value is 0.66 and 0.01 and 1.22.

Q: And the “CyclinB1 protein level (Fig. 6a)” value ([2]; 5 μM)?
A: The value was 0.9 and 0.62 and 1.39.

Q: What about the “CyclinD1 protein level (Fig. 6a)” value ([2]; 5 μM) of the same compound?
A: Its value is 0.34 and 0.13 and 0.42 and 0.23.

Q: What about the “Pin1 protein level (Fig. 6a)” value ([2]; 5 μM) of the same compound?
A: Its value is 0.63 and 0.26 and 0.56 and 0.35.

Q: And the “p21 protein level (Fig. 6a)” value ([2]; 5 μM)?
A: The value was 0.81 and 0.2 and 1.37.

Q: And the “p27 protein level (Fig. 6a)” value ([2]; 5 μM)?
A: Its value is 1.19 and 1.12 and 1.3.

Q: What about the “CyclinA2 protein level (Fig. 6a)” value ([2]; 10 μM) of the same compound?
A: Its value is 0.13 and 0 and 0.23.

Q: What about the “CyclinB1 protein level (Fig. 6a)” value ([2]; 10 μM) of the same compound?
A: The value was 0.63 and 0.58 and 0.55.

Q: And the “CyclinD1 protein level (Fig. 6a)” value ([2]; 10 μM)?
A: The value was 0.01 and 0.35 and 0.23 and 0.05.

Q: What about the “Pin1 protein level (Fig. 6a)” value ([2]; 10 μM) of the same compound?
A: Its value is 0.56 and 0.13 and 0.39 and 0.14.

Q: And the “p21 protein level (Fig. 6a)” value ([2]; 10 μM)?
A: Its value is 1.42 and 0.19 and 0.58.

Q: What about the “p27 protein level (Fig. 6a)” value ([2]; 10 μM) of the same compound?
A: Its value is 1.39 and 2.2 and 1.28.

Q: And the “effect on cellular Pin1 protein levels” value ([2]; LN95, 0–10 µM)?
A: Its value is “dose-dependent decrease in Pin1 levels”.

Q: What about the “effect on expression of cyclins D1, A2, B1” value ([2]; LN95, ATRA 0–10 µM) of the same compound?
A: The value was “significantly decreased the expression of cyclin D1 and cyclin A2; also recorded: not cyclin B1”.

Q: What about the “effect on levels of CDK inhibitors p27Kip1 and p21Cip1” value ([2]; LN95, ATRA 0–10 µM) of the same compound?
A: Its value is “selectively increased the levels of cyclin-dependent kinase (CDK) inhibitor p27^Kip1 but not p21^Cip1”.

Q: What about the “Pin1 (and cyclin D1) levels in xenografts” value [3] of the same compound?
A: Its value is “decrease in Pin1 levels; also recorded: decreased levels of Pin1 and its target cyclin D1”.

Q: And the “effect on cell cycle distribution” value [4]?
A: Its value is “reduced the S phase and increased the G1 population”.

Q: What about the “effect on percentage of SA β-gal-positive cells” value ([5]; LN95, ATRA 10 µM) of the same compound?
A: The value was “significantly increased the percentage of SA β-gal-positive cells for LNCaP and LN95 cells”.

Q: And the “SA β-gal-positive cells” value ([5]; LN95, ATRA 10 μM, EPI-002 25 μM)?
A: The value was 37%.

Q: And the “effect on proliferation of PC-3 cells” value [6]?
A: The value was “did not impact the proliferation of either PC-3 or DU145 cells”.

Q: And the “BrdU incorporation, PC-3 (Fig. 4c)” value [6]?
A: Its value is 1.204 and 0.885 and 0.987 and 1.277.

Q: And the “effect on cell cycle / S phase population” value [7]?
A: The value was “reduced the S phase population in a dose- and time-dependent manner”.

Q: And the “effect on colony formation” value [8]?
A: Its value is “inhibited the ability of LN95 cells to form colonies in a dose-dependent manner”.

Q: For O=C1C=CC(=O)c2c(O)cccc21 [juglone], which “effect on isomerase activity of Pin1” value [1] is on record?
A: The value was “inhibited the isomerase activity of Pin1 in a dose-dependent manner”.

Q: And the “reduction of the amount of AR interacting with STAT3” value [9]?
A: Its value is ~ 50%.

Q: What about the “effect on IL-6-induced transactivation of Gal4-AR234–391 proline to glycine mutants” value [10] of the same compound?
A: The value was “inhibited the P257G and P309G mutants to levels that were comparable to wild-type; also recorded: had no effect on the P257G/P309G double mutant”.

Q: And the “effect on IL-6-induced transactivation of Gal4-AR NTD fragments (construct named in the value)” value [10]?
A: The value was “inhibited transactivation of AR 234–391 and intact AR NTD (1–558); also recorded: only had a modest effect on AR 392–558; also recorded: did not inhibit the activity of Gal4DBD (empty vector) or AR 1–233”.

Q: And the “transactivation, Gal4DBD (Fig. 3f)” value [10]?
A: The value was 0.951 and 0.829 and 0.839.

Q: What about the “BrdU incorporation, PC-3 (Fig. 4c)” value ([6]; listed as JUG) of the same compound?
A: Its value is 0.17 and 0.16 and 0.171 and 0.227.
